# Source: paper PMC6001238, “Iterative Chemical Engineering of Vancomycin Leads to Novel Vancomycin Analogs With a High in Vitro Therapeutic Index” (Frontiers in Microbiology, 2018)
# Like-named read-outs stand apart in the source and are kept apart here.
# Experiments:
# VE 157 (VanB) = test: MIC, VanB-type VRE strain VE 157; type: cell-based, Enterococcus; conditions: Enterococcus
# Outline: (§1)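 Following CLSI antimicrobial susceptibility standards, organisms were tested by broth microdilution. Controls comprised ultrapure water plus broth left uninoculated. For a single condition, 10 μM vancomycin (final) accompanied the analog or control agent.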
# S. aureus VISA/HIP5827 = test: MIC, broth microdilution, vancomycin-intermediate S. aureus VISA HIP5827; type: cell-based, Staphylococcus aureus
# Outline: as §1
# VE 149 (VanB) = test: MIC, VanB-type VRE strain VE 149; type: cell-based, Enterococcus; conditions: Enterococcus
# Outline: as §1
# [1] = system: S. aureus VSSA (ATCC 6538); test: MIC, broth microdilution, vancomycin-sensitive S. aureus (VSSA/MSSA, ATCC 6538); type: cell-based, Staphylococcus aureus
# Outline: as §1
# VE 148 (VanB) = test: MIC, VanB-type VRE strain VE 148; type: cell-based, Enterococcus; conditions: Enterococcus
# Outline: as §1
# E. faecalis VRE 53 = test: MIC, broth microdilution, vancomycin-resistant E. faecalis VRE 53 (VanA); type: cell-based, Enterococcus faecalis
# Outline: as §1
# 33 clinical VRE isolates = test: MIC against a set of 33 clinical VRE isolates (range, MIC50, TI); type: cell-based, Enterococcus faecalis; conditions: VRE; for TI (IC50/MIC50): in vitro therapeutic index
# Outline: as §1
# E. faecalis VRE 29 = test: MIC, broth microdilution, vancomycin-resistant E. faecalis VRE 29 (VanA); type: cell-based, Enterococcus faecalis
# Outline: as §1
# [2] = system: human T-lymphocyte (CEM) cells; test: Cytostatic activity, CEM cell proliferation; type: cell-based; conditions: Homo sapiens, CCRF-CEM, 72 h, read-out: Toxicity (IC50) CEM
# Outline: (§2)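 Readout: Coulter cell number after drug exposure at 37°C. Durations differ by line (L1210 2 days; CEM 3 days; HeLa 4 days). Stock suspension 300,000–500,000 cells/mL, diluted by mixing with compound. Endpoint: IC50 vs negative control.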
# VE 150 (VanB) = test: MIC, VanB-type VRE strain VE 150; type: cell-based, Enterococcus; conditions: Enterococcus
# Outline: as §1
# MRSA KS89 = test: MIC, broth microdilution, MRSA KS89; type: cell-based, Staphylococcus aureus
# Outline: as §1
# MRSA KS2 = test: MIC, broth microdilution, MRSA KS2; type: cell-based, Staphylococcus aureus
# Outline: as §1
# [3] = system: Clostridium difficile ATJ ribotype 014/20; test: MIC, plate drop assay, C. difficile ATJ ribotype 014/20; type: cell-based
# Outline: (§3)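 Twofold dilution series of test compounds were spotted onto C. difficile lawns in 0.4% BHI agar containing added calcium and magnesium salts. After overnight anaerobic incubation at 37°C, growth inhibition was scored by spot clearing; triplicate runs, ultrapure water negative control.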
# MRSA = test: Minimum bactericidal concentration against MRSA; type: cell-based, Staphylococcus aureus
# Protocol: Plates were incubated overnight at 37°C and colony growth was inspected.
# VE 152 (VanB) = test: MIC, VanB-type VRE strain VE 152; type: cell-based, Enterococcus; conditions: Enterococcus
# Outline: as §1
# MRSA KS1 = test: MIC, broth microdilution, MRSA KS1; type: cell-based, Staphylococcus aureus
# Outline: as §1
# [4] = system: 24 clinical MRSA isolates; test: MIC against a set of 24 clinical MRSA isolates (range, MIC50, TI); type: cell-based, Staphylococcus aureus
# Outline: as §1
# [5] = system: Murine leukemia (L1210) cells; test: Cytostatic activity, L1210 cell proliferation; type: cell-based; conditions: Mus musculus, L1210, 48 h, read-out: Toxicity (IC50) L1210
# Outline: as §2
# [6] = system: human cervix carcinoma (HeLa) cells; test: Cytostatic activity, HeLa cell proliferation; type: cell-based; conditions: Homo sapiens, HeLa, 96 h, read-out: Toxicity (IC50) HeLa
# Outline: as §2
# VE 82 (VanC1) = test: MIC, VanC1-type VRE strain VE 82; type: cell-based, Enterococcus gallinarum; conditions: Enterococcus gallinarum
# Outline: as §1
# S. aureus VRSA = test: MIC, broth microdilution, vancomycin-resistant S. aureus (VRSA); type: cell-based, Staphylococcus aureus
# Outline: as §1
# [7] = system: Clostridium difficile AIU ribotype 027; test: MIC, plate drop assay, C. difficile AIU ribotype 027; type: cell-based
# Outline: as §3
# E. faecalis VRE 6 = test: MIC, broth microdilution, vancomycin-resistant E. faecalis VRE 6 (VanA); type: cell-based, Enterococcus faecalis
# Outline: as §1
# E. faecalis VSE 1 = test: MIC, broth microdilution, vancomycin-sensitive E. faecalis (VSE 1); type: cell-based, Enterococcus faecalis
# Outline: as §1
# E. faecalis VRE 37 = test: MIC, broth microdilution, vancomycin-resistant E. faecalis VRE 37 (VanA); type: cell-based, Enterococcus faecalis
# Outline: as §1
# MRSA KS6 = test: MIC, broth microdilution, MRSA KS6; type: cell-based, Staphylococcus aureus
# Outline: as §1
# [8] = system: L1210, CEM and HeLa cell lines; test: Cytostatic activity, average or summary over L1210, CEM and HeLa; type: cell-based
# Outline: as §2
smiles,measurement,setting,value
CN[C@H](CC(C)C)C(=O)N[C@H]1C(=O)N[C@@H](CC(N)=O)C(=O)N[C@H]2C(=O)N[C@H]3C(=O)N[C@H](C(=O)N[C@H](C(=O)O)c4cc(O)cc(O)c4-c4cc3ccc4O)[C@H](O)c3ccc(c(Cl)c3)Oc3cc2cc(c3O[C@@H]2O[C@H](CO)[C@@H](O)[C@H](O)[C@H]2O[C@H]2C[C@](C)(N)[C@H](O)[C@H](C)O2)Oc2ccc(cc2Cl)[C@H]1O [Vancomycin],MIC,VE 157 (VanB),100 µM
same,MIC,"S. aureus VISA/HIP5827; Staphylococcus aureus, VISA",6.25 µM
same,MIC-fold improvement vs. vancomycin,"S. aureus VISA/HIP5827; VISA/HIP5827, ratio of MIC of vancomycin and MIC of analogue",1
same,MIC,VE 149 (VanB),50 µM
same,MIC,"[1]; Staphylococcus aureus, ATCC6538",0.78 µM
same,MIC-fold improvement vs. vancomycin,"[1]; VSSA, ratio of MIC of vancomycin and MIC of analogue",1
same,MIC,VE 148 (VanB),100 µM
same,MICvanc/MICi,"E. faecalis VRE 53; E. faecalis VRE 53, ratio of MIC of vancomycin and MIC of analogue",1
same,MIC,"E. faecalis VRE 53; Enterococcus faecalis VRE 53 (vancomycin-resistant), read-out: MIC",400 µM
same,MIC,"E. faecalis VRE 53; Enterococcus faecalis, VRE",400 µM
same,MIC-fold improvement vs. vancomycin,"E. faecalis VRE 53; VRE 53, ratio of MIC of vancomycin and MIC of analogue",1
same,MIC50,33 clinical VRE isolates; Enterococcus,800 µM
same,TI (IC50/MIC50),33 clinical VRE isolates,0.3
same,TI (IC50/MIC50),33 clinical VRE isolates; listed as vancomycin,< 1
same,MIC,"E. faecalis VRE 29; Enterococcus faecalis, VRE",400 µM
same,MIC-fold improvement vs. vancomycin,"E. faecalis VRE 29; VRE 29, ratio of MIC of vancomycin and MIC of analogue",1
same,IC50,[2],> 250 µM
same,MIC,VE 150 (VanB),100 µM
same,MIC-fold improvement vs. vancomycin,"MRSA KS89; MRSA KS8 (head; KS89 in title), ratio of MIC of vancomycin and MIC of analogue",1
same,MIC,"MRSA KS89; Staphylococcus aureus, MRSA",0.78 µM
same,MIC-fold improvement vs. vancomycin,"MRSA KS2; MRSA KS2, ratio of MIC of vancomycin and MIC of analogue",1
same,MIC,"MRSA KS2; Staphylococcus aureus, MRSA",0.78 µM
same,MIC-fold improvement vs. vancomycin,[3]; C. difficile ATJ ribotype 014/20,1
same,MIC,"[3]; Clostridioides difficile, C. difficile ATJ ribotype 014/20, plate drop assay",35 µM
same,MBC relative to MIC,MRSA,MBC equaling their MIC values
same,MIC,VE 152 (VanB),50 µM
same,MIC-fold improvement vs. vancomycin,"MRSA KS1; MRSA KS1, ratio of MIC of vancomycin and MIC of analogue",1
same,MIC,"MRSA KS1; Staphylococcus aureus, MRSA",0.78 µM
same,MIC Range,[4]; 24 clinical MRSA isolates,0.78 to 6.25 µM
same,MIC50,"[4]; Staphylococcus aureus, MRSA",1.56 µM
same,TI (IC50/MIC50),"[4]; in vitro therapeutic index, MRSA",160
same,IC50,[5],> 250 µM
same,IC50,[6],> 250 µM
same,MIC,VE 82 (VanC1),3.13 µM
same,MIC,S. aureus VRSA; Staphylococcus aureus VRSA,100 µM
same,MIC-fold improvement vs. vancomycin,"S. aureus VRSA; VRSA, ratio of MIC of vancomycin and MIC of analogue",1
same,MIC-fold improvement vs. vancomycin,[7]; C. difficile AIU ribotype 027,1
same,MIC,"[7]; Clostridioides difficile, C. difficile AIU ribotype 027, plate drop assay",45 µM
same,MICvanc/MICi,"E. faecalis VRE 6; E. faecalis VRE 6, ratio of MIC of vancomycin and MIC of analogue",1
same,MIC,"E. faecalis VRE 6; Enterococcus faecalis VRE 6 (vancomycin-resistant), read-out: MIC",200 µM
same,MIC,"E. faecalis VRE 6; Enterococcus faecalis, VRE",200 µM
same,MIC-fold improvement vs. vancomycin,"E. faecalis VRE 6; VRE 6, ratio of MIC of vancomycin and MIC of analogue",1
same,MICvanc/MICi,"E. faecalis VSE 1; E. faecalis VSE 1, ratio of MIC of vancomycin and MIC of analogue",1
same,MIC,"E. faecalis VSE 1; Enterococcus faecalis VSE 1 (vancomycin-sensitive), read-out: MIC",1.56 µM
same,MIC,"E. faecalis VSE 1; Enterococcus faecalis, VSE1",1.56 µM
same,MIC-fold improvement vs. vancomycin,"E. faecalis VSE 1; VSE 1, ratio of MIC of vancomycin and MIC of analogue",1
same,MIC,"E. faecalis VRE 37; Enterococcus faecalis, VRE",400 µM
same,MIC-fold improvement vs. vancomycin,"E. faecalis VRE 37; VRE 37, ratio of MIC of vancomycin and MIC of analogue",1
same,MIC-fold improvement vs. vancomycin,"MRSA KS6; MRSA KS6, ratio of MIC of vancomycin and MIC of analogue",1
same,MIC,"MRSA KS6; Staphylococcus aureus, MRSA",0.78 µM
same,IC50,[8],250 µM
same,IC50,"[8]; read-out: IC50 (L1210, CEM, HeLa), depending on the cell line used",> 250 µM
same,IC50,[8]; read-out: Toxicity (IC50) Average,> 250 µM
